Molecules are shown by their SMILES. Activity calls are given as the source filed them. The rule behind the calls is not given here.

This is an account of results in ChEMBL document CHEMBL3763065, “Anti-inflammatory and antioxidant properties of a novel resveratrol-salicylate hybrid analog” (Bioorg Med Chem Lett, 2016).

The target of series [1] is T1, Prostaglandin G/H synthase 1 (Ovis aries, UniProt P05979).
T1 sequence (P05979 whole entry): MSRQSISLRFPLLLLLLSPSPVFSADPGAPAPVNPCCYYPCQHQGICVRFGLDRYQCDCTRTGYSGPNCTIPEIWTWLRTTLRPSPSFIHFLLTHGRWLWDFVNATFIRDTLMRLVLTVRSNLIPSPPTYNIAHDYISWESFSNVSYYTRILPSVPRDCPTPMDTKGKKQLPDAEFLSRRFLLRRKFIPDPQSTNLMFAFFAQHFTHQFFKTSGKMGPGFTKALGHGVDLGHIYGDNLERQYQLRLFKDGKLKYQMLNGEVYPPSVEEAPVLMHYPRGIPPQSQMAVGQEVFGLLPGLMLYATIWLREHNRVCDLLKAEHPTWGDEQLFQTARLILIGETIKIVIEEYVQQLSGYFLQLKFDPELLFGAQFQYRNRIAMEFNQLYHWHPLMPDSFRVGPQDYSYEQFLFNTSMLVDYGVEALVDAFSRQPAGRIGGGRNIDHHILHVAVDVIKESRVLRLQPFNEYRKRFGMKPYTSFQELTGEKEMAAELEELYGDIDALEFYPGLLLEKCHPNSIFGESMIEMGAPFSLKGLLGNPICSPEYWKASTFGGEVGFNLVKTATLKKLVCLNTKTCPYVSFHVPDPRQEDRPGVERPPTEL
Kind of series: Inhibition of ovine COX-1 using arachidonic acid as substrate assessed as PGE2 production preincubated for 10 mins followed by substrate addition incubated for 2 mins by ELISA. For orientation: In an ELISA, binding on a coated surface is turned into a signal by an enzyme label.

Series [2] addresses T2, Prostaglandin G/H synthase 2 (Homo sapiens, UniProt P35354).
T2 sequence (P35354 whole entry): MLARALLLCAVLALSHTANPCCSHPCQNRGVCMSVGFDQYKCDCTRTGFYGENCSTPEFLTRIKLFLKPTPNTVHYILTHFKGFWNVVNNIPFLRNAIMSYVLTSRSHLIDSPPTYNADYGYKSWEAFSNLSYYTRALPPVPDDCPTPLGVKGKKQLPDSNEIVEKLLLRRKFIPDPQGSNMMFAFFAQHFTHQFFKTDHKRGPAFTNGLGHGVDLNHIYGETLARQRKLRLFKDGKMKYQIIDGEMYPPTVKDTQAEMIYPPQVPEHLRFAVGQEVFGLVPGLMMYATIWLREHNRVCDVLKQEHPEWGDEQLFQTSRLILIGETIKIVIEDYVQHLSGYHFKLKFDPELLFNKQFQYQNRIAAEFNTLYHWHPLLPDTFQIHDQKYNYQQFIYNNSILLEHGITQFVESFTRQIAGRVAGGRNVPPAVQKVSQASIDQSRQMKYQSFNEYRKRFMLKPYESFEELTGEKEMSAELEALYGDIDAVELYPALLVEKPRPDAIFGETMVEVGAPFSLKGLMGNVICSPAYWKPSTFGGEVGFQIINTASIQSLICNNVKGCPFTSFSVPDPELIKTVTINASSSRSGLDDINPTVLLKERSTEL
Description: Inhibition of human recombinant COX-2 using arachidonic acid as substrate assessed as PGE2 production preincubated for 10 mins followed by substrate addition incubated for 2 mins by ELISA.

A short description of series [3]: Antioxidant activity assessed as DPPH free radical scavenging activity at 200 uM after 30 mins by spectrophotometric analysis. The following applies: 0.5 h. The format is physicochemical. For orientation: The DPPH test is a chemical assay of radical scavenging.
The nature of series [4]: Selectivity index ratio of IC50 for ovine COX-1 to IC50 for human recombinant COX-2.
Series [5] is described as follows: Antioxidant activity assessed as DPPH free radical scavenging activity at 0.06 to 200 uM after 30 mins by spectrophotometric analysis. As to conditions: 0.5 h. The series is classed as physicochemical.
The test system of series [6] is Mus musculus. Kind of series: Antiinflammatory activity in BALB/c mouse paw edema model assessed as decrease in myeloperoxidase activity in paw exudates at 20 mg/kg, po administered 30 mins prior to carrageenan challenge measured after 4 hrs by microplate reader analysis relative to control. The series is classed as functional. Also noted: scale not given: the % may be the effect or the level left.

For series [7], the system named is Mus musculus. Description: Antiinflammatory activity in carrageenan-induced BALB/c mouse peritonitis model assessed as decrease in number of leukocytes in peritoneal exudates administered via oral gavage 30 mins prior to carrageenan challenge measured after 4 hrs. The series is classed as functional, organism-based.
Series [8] has as its system Mus musculus. Description: Antiinflammatory activity in carrageenan-induced BALB/c mouse peritonitis model assessed as decrease in nitric oxide level in peritoneal exudates at 10 to 20 mg/kg administered via oral gavage 30 mins prior to carrageenan challenge measured after 4 hrs by Griess method. The format is functional, organism-based.
Series [9] deals with Mus musculus. Kind of series: Antiinflammatory activity in carrageenan-induced BALB/c mouse paw edema model assessed as decrease in paw volume at 10 mg/kg, po administered 30 mins prior to carrageenan challenge measured after 6 hrs by plethysmometric analysis relative to control. The format is functional. Also noted: scale not given: the % may be the effect or the level left. (Carrageenan injected into the paw causes an acute inflammation.)

Series [10] concerns Mus musculus. Kind of series: Antiinflammatory activity in carrageenan-induced BALB/c mouse paw edema model assessed as decrease in paw volume administered orally 30 mins prior to carrageenan challenge measured after 1 to 6 hrs by plethysmometric analysis. The series is classed as functional, organism-based.
Series [11] relates to Mus musculus. Description: Antiinflammatory activity in carrageenan-induced BALB/c mouse paw edema model assessed as decrease in paw volume at 20 mg/kg, po administered 30 mins prior to carrageenan challenge measured after 6 hrs by plethysmometric analysis relative to control. The series is classed as functional. Also noted: scale not given: the % may be the effect or the level left.

The test system of series [12] is Mus musculus. Description: Antiinflammatory activity in BALB/c mouse paw edema model assessed as decrease in myeloperoxidase activity in paw exudates at 10 mg/kg, po administered 30 mins prior to carrageenan challenge measured after 4 hrs by microplate reader analysis relative to control. Also on record: scale not given: the % may be the effect or the level left. The format is functional.

In series [13] the test system is HepG2. Kind of series: Antioxidant activity in human HepG2 cells assessed as reduction of H2O2-induced ROS level at 10 uM pretreated for 20 hrs followed by H2O2 stimulation for 30 mins by DCF-DA-based fluorescence analysis relative to control. Also noted: scale not given: the % may be the effect or the level left. The series is classed as functional.
Series [14] has as its system HepG2. Kind of series: Cytotoxicity against human HepG2 cells at 2.5 to 10 uM by MTT assay. The series is classed as cell-based. As to conditions: hepg2, 10 µM.
Series [15] has as its system Mus musculus. Kind of series: Antiinflammatory activity in carrageenan-induced BALB/c mouse peritonitis model assessed as decrease in number of leukocytes in peritoneal exudates at 10 to 20 mg/kg administered via oral gavage 30 mins prior to carrageenan challenge measured after 4 hrs. The series is classed as functional, organism-based.

Broadly, the IC50 is the concentration needed to halve the response being measured. With `O=C(O)c1cc(/C=C/c2ccc(O)cc2)ccc1O`, the half-inhibitory concentration (IC50) in series [1] was 421 µM; in series [2], over 500 µM. For the same molecule, the result in series [3] was Active.
As to `O=C(O)c1cc(/C=C/c2cc(O)cc(O)c2)ccc1O`, the half-inhibitory concentration (IC50) in [1] is 3.2 µM; in series [2], 10.3 µM. Further, in series [4], the Ratio IC50 turned out to be 0.31. Also, the result in series [5] was Active.
Regarding `COC(=O)c1cc(/C=C/c2cc(O)cc(O)c2)ccc1O`, the Activity was 60% with Mus musculus [6]; “Dose-dependent effect” in the series on Mus musculus [7]; 59% in the series with Mus musculus [9]; “Dose-dependent effect” with Mus musculus [10]; 74% with Mus musculus [11]; 60% in the series on Mus musculus [12]. Also, the Activity was 33% in the series with HepG2 [13], “Non-toxic” in the series on HepG2 [14] and “Active” in series [5]. Also, the IC50 turned out to be 4.1 µM in [1] and 1 µM in series [2]. Moreover, the Ratio IC50 in series [4] amounted to 4.1. The outcome in the series with Mus musculus [8] was inactive.
Consider `Oc1ccc(/C=C/c2cc(O)cc(O)c2)cc1` [RESVERATROL], for which the Activity in the series on Mus musculus [6] was 53%; with Mus musculus [9] it was 34%; in the series on Mus musculus [10], “Dose-dependent effect”; in the series on Mus musculus [11] it was 52%; in the series with HepG2 [13], 25%; with HepG2 [14], “Non-toxic”. The outcome in series [5] was Active. Moreover, in the series on Mus musculus [15], the outcome was Active. In addition, in the series on Mus musculus [8], the result was inactive.
`COc1ccc(/C=C/c2cc(OC)cc(OC)c2)cc1` [TRISMETHOXYRESVERATROL]: the result in the series with Mus musculus [6] and in the series on Mus musculus [8] was inactive. In addition, the figures for the IC50 in series [1] and in series [2] were 1.23 µM and 1.67 µM, respectively. Further, the Ratio IC50 in series [4] amounted to 0.74. The Activity result was “Dose-dependent effect” with Mus musculus [7]; 19% with Mus musculus [9]; “Dose-dependent effect” with Mus musculus [10]; 34% in the series on Mus musculus [11]; 42% in the series on HepG2 [13]; “Non-toxic” with HepG2 [14].
